This passage reports AC50 results from ChEMBL document CHEMBL5291721, “A preclinical secondary pharmacology resource illuminates target-adverse drug reaction associations of marketed drugs” (Nat Commun, 2023).

In one test the target is T1, Androgen receptor (Rattus norvegicus, UniProt P15207).
T1 sequence (P15207 whole entry): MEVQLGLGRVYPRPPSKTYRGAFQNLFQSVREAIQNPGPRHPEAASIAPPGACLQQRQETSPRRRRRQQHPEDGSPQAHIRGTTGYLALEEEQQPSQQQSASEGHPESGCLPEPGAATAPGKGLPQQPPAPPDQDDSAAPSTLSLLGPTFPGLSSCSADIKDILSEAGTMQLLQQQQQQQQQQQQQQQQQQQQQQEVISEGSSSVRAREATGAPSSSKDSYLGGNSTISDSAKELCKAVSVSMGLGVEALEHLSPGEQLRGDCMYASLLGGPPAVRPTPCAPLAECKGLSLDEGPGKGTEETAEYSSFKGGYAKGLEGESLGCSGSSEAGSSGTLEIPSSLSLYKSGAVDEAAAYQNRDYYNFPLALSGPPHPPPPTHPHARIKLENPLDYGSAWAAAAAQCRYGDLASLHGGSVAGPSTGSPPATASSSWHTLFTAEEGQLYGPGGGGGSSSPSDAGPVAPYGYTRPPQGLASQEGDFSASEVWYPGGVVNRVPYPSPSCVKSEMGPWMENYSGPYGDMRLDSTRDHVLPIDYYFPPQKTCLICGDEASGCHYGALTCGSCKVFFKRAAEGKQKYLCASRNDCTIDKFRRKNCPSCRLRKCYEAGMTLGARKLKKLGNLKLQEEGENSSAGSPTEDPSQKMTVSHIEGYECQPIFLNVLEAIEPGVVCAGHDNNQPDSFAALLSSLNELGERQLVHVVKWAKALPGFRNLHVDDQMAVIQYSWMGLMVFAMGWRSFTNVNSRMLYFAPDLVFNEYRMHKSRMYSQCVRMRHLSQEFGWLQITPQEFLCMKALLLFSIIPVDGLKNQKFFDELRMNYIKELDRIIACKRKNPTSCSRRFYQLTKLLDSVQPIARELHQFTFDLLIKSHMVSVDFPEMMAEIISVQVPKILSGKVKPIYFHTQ

Test [1] concerns the target T2, Peroxisome proliferator-activated receptor gamma (Homo sapiens, UniProt P37231).
T2 sequence (P37231 whole entry): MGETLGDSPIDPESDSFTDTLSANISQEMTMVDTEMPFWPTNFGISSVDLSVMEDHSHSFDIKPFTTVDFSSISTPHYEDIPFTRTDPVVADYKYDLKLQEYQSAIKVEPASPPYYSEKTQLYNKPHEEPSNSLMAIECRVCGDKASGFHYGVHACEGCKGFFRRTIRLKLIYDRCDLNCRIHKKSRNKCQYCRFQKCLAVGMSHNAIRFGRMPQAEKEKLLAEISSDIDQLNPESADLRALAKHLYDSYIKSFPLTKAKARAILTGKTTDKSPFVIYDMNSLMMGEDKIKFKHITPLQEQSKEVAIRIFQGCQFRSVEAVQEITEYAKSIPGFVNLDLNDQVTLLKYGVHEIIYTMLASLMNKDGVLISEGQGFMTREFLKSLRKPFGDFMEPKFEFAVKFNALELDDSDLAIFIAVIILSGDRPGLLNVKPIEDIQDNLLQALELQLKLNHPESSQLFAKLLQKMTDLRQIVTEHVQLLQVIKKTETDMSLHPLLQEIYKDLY
The class given is functional.

Test [2] deals with 5-hydroxytryptamine receptor 2A (Homo sapiens, UniProt P28223).
5-hydroxytryptamine receptor 2A, sequence (P28223 whole entry): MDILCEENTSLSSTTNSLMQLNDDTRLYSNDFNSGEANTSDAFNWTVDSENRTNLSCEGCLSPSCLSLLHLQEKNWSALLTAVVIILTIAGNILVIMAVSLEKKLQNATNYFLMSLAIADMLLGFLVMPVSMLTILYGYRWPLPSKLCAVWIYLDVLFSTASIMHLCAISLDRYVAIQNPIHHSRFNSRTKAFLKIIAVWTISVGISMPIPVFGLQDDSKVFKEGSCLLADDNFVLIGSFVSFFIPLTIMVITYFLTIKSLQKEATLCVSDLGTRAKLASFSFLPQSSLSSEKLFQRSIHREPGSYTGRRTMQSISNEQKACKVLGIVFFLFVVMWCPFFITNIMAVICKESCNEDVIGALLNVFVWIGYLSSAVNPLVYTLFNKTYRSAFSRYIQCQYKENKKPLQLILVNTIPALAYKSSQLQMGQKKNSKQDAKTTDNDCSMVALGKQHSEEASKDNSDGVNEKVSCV
For test [3], the target named is Voltage-dependent N-type calcium channel subunit alpha-1B (Rattus norvegicus, UniProt Q02294). In kind it is functional.
In test [4] the target is Neurotensin receptor type 1 (Homo sapiens, UniProt P30989).
Neurotensin receptor type 1, sequence (P30989 whole entry): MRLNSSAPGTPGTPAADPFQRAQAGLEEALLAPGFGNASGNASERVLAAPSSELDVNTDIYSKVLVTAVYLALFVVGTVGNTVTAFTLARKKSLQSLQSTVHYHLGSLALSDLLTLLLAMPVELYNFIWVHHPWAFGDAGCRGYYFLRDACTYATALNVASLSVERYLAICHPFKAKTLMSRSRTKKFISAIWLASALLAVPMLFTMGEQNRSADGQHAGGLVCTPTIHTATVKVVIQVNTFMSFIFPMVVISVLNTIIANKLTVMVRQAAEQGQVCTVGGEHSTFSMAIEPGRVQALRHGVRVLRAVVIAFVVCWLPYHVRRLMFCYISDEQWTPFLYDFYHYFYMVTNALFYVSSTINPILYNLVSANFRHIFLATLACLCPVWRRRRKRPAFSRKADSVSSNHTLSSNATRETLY
The target in the next test is Glucagon receptor (Homo sapiens, UniProt P47871).
Glucagon receptor, sequence (P47871 whole entry): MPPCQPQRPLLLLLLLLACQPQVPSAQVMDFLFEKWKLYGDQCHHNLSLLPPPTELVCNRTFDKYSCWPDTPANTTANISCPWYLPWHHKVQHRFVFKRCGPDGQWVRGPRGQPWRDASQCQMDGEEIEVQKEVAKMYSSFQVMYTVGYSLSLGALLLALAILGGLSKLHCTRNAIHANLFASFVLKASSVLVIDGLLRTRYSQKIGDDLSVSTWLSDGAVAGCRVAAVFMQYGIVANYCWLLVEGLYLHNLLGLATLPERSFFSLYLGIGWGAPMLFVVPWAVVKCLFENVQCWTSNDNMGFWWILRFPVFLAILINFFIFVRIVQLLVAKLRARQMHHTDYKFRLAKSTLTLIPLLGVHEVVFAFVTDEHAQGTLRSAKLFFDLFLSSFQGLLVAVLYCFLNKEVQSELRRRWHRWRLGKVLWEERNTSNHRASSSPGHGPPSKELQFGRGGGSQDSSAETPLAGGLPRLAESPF
Test [5] deals with T3, Corticotropin-releasing factor receptor 1 (Homo sapiens, UniProt P34998).
T3 sequence (P34998 whole entry): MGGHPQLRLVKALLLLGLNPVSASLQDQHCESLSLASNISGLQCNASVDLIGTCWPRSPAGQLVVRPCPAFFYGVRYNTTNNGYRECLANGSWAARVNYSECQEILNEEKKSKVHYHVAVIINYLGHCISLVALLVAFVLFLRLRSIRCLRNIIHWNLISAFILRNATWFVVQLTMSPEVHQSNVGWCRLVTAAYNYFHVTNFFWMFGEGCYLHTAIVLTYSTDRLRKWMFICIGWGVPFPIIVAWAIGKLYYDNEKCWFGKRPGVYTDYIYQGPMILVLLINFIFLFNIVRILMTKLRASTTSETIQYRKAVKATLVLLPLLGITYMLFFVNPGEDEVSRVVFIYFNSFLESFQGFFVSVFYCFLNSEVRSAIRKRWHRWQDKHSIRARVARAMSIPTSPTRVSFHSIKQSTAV

For test [6], the target named is T4, Muscarinic acetylcholine receptor M2 (Homo sapiens, UniProt P08172).
T4 sequence (P08172 whole entry): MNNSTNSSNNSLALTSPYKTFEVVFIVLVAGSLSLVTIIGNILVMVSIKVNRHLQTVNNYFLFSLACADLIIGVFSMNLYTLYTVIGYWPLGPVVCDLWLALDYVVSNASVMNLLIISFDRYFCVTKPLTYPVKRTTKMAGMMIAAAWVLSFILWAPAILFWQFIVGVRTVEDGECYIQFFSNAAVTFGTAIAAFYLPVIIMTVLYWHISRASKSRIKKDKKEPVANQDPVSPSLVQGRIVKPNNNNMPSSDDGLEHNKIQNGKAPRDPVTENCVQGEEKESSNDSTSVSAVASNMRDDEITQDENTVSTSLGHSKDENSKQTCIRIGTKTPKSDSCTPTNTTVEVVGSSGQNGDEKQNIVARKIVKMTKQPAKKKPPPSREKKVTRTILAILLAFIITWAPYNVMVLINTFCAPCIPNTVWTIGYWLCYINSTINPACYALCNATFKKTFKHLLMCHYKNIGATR

For the next test, the target named is Histamine H1 receptor (Homo sapiens, UniProt P35367). In kind it is functional, cell-based.
Histamine H1 receptor, sequence (P35367 whole entry): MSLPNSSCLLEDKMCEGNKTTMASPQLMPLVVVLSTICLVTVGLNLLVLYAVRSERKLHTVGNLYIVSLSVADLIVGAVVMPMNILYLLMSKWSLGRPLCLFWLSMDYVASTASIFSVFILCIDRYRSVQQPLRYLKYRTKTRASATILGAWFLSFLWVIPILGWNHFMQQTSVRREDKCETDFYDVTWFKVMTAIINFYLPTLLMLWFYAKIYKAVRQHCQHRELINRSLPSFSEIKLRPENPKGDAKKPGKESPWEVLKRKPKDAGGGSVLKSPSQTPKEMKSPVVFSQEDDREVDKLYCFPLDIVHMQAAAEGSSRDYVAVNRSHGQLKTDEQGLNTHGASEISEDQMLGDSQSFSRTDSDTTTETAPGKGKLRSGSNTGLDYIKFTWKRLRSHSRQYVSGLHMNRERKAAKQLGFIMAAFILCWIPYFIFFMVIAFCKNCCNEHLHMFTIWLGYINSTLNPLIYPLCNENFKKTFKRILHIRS
Test [7] has as its target Sodium channel protein type 5 subunit alpha (Homo sapiens, UniProt Q14524). The class given is functional, cell-based.
Note: assay procedure not described here.

Sodium channel protein type 5 subunit alpha, sequence (Q14524 whole entry): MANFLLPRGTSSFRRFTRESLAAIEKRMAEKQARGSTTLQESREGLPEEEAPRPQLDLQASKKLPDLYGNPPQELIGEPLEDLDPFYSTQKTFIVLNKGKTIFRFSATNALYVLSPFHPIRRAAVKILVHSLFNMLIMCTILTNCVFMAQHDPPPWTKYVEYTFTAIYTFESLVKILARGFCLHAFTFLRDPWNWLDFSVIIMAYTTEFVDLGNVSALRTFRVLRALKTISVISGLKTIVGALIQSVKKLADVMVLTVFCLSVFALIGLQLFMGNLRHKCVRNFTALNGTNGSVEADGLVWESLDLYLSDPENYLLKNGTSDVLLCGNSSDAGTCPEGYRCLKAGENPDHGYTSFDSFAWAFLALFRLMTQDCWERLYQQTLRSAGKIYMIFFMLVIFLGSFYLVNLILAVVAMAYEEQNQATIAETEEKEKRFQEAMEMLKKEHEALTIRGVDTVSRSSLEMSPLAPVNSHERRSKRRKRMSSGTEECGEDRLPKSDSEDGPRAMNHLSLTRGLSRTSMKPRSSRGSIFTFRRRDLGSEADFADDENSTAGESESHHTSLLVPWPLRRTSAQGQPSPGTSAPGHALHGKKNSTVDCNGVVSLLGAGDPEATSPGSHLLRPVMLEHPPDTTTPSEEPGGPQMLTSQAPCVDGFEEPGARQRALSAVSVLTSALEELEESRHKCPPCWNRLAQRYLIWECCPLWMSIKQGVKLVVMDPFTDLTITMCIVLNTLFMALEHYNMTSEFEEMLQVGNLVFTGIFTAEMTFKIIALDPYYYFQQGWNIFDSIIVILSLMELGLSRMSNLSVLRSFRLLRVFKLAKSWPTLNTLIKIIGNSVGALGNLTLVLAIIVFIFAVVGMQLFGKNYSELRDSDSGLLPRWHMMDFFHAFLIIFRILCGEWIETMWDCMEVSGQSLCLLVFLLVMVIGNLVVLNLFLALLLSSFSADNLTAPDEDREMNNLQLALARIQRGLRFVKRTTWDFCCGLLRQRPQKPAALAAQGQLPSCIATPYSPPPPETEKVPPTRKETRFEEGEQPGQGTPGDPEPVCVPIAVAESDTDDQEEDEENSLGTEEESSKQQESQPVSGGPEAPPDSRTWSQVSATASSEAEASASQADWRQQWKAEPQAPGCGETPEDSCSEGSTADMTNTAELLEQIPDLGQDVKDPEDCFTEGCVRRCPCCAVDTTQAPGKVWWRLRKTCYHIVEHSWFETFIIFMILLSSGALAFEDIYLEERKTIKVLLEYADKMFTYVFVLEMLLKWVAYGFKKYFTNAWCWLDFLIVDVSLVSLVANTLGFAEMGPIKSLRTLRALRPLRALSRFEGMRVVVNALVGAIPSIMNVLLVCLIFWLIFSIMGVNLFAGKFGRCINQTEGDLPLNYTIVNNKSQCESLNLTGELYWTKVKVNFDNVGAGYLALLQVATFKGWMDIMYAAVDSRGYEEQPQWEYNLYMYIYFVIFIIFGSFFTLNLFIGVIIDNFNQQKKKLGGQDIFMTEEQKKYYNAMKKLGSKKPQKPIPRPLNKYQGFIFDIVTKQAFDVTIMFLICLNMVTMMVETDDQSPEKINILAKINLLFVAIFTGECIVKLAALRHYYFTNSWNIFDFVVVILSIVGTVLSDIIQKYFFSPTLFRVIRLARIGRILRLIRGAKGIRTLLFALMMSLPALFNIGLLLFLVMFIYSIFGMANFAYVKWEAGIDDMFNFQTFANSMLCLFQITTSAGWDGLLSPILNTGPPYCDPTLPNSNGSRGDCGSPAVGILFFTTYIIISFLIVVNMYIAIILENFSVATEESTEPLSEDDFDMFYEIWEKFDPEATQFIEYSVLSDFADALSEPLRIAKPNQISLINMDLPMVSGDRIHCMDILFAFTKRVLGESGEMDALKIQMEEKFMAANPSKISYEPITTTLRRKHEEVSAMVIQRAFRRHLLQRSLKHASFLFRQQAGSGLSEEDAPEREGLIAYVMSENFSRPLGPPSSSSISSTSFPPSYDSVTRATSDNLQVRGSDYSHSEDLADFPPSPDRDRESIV

`NS(=O)(=O)c1cc2c(cc1C(F)(F)F)NC(Cc1ccccc1)NS2(=O)=O` (centres undefined) [BENDROFLUMETHIAZIDE]: at Androgen receptor, the AC50 was more than 10 µM.
Turning to `CS(=O)(=O)OCCCCOS(C)(=O)=O` [BUSULFAN], the AC50 in test [1] was more than 30 µM.
The same measure, in the same setting: for `CCCCC1(CC)C(=O)NC(=O)NC1=O` [BUTETHAL] the value was more than 30 µM.
`CCCC(C)(COC(N)=O)COC(=O)NC(C)C` (centres undefined) [CARISOPRODOL]: the AC50 in test [2] is more than 10 µM; in test [3], more than 10 µM; in test [4], more than 30 µM; at Glucagon receptor, more than 30 µM; in test [5], more than 30 µM; in [6] it was more than 10 µM. Moreover, the AC50 on Histamine H1 receptor is more than 30 µM.
Regarding `C=CC1=C(C(=O)O)N2C(=O)[C@@H](NC(=O)/C(=N\OCC(=O)O)c3csc(N)n3)[C@H]2SC1` [CEFIXIME], the AC50 in test [1] is more than 30 µM.
The same measure, in the same setting: for `CO[C@@]1(NC(=O)Cc2cccs2)C(=O)N2C(C(=O)O)=C(COC(N)=O)CS[C@@H]21` [CEFOXITIN] the value was 11 µM.
Same read-out and setting: as for `CCN(CC)CCOC(=O)c1ccc(N)cc1Cl` [CHLOROPROCAINE], the figure is more than 30 µM.
Turning to `COCCOC(=O)C1=C(C)NC(C)=C(C(=O)OC/C=C/c2ccccc2)C1c1cccc([N+](=O)[O-])c1` (centres undefined) [CILNIDIPINE], the AC50 in test [7] was more than 50 µM; on Histamine H1 receptor, more than 30 µM.
In turn, `CC(C)(C)NCC(O)c1cc(Cl)c(N)c(Cl)c1` (centres undefined) [CLENBUTEROL] showed a concentration at half-maximal activity (AC50) at Androgen receptor of more than 30 µM.
In test [1], `COc1cccc2c1C(=O)c1c(O)c3c(c(O)c1C2=O)C[C@@](O)(C(C)=O)C[C@@H]3O[C@H]1C[C@H](N)[C@H](O)[C@H](C)O1` [DAUNORUBICIN] yielded an AC50 of more than 10 µM.
Take `N[C@H](Cc1cc(I)c(Oc2cc(I)c(O)c(I)c2)c(I)c1)C(=O)O` [DEXTROTHYROXINE]: the AC50 in test [2] was more than 10 µM; in test [3], more than 10 µM; in test [4], 4.8 µM; at Glucagon receptor it was more than 30 µM; in test [5], more than 30 µM; in test [6], more than 10 µM.
For the molecule `COC(=O)N[C@@H](C)CNc1nccc(-c2cn(C(C)C)nc2-c2cc(Cl)cc(NS(C)(=O)=O)c2F)n1` [ENCORAFENIB], the AC50 in test [7] was more than 30 µM.
On Androgen receptor, `Clc1ccc2c(c1)C(c1ccccc1)=NCc1nncn1-2` [ESTAZOLAM] yielded an AC50 of more than 30 µM.
Take `CCCN(CC)C(CC)C(=O)Nc1c(C)cccc1C` (centres undefined) [ETIDOCAINE]: the AC50 in [7] turned out to be 28 µM.
`CC(=O)OCC(CCn1cnc2cnc(N)nc21)COC(C)=O` [FAMCICLOVIR]: the concentration at half-maximal activity (AC50) is more than 30 µM at Androgen receptor; more than 10 µM in test [3]; more than 30 µM in test [4]; more than 30 µM at Glucagon receptor; more than 30 µM in test [5]; more than 10 µM in test [6].
On Androgen receptor, `Nc1nc(F)nc2c1ncn2[C@@H]1O[C@H](COP(=O)(O)O)[C@@H](O)[C@@H]1O` [FLUDARABINE PHOSPHATE] showed an AC50 of more than 30 µM.
With `O=C(O)c1ccccc1Nc1cccc(C(F)(F)F)c1` [FLUFENAMIC ACID], the AC50 on Androgen receptor is more than 30 µM; in test [2] it was 0.0771 µM; in test [3], more than 10 µM; in [4], more than 30 µM; at Glucagon receptor, more than 30 µM; in test [5] it was more than 30 µM.
As for `O=C(O)c1ccccc1OP(=O)(O)O` [FOSFOSAL], in test [1], the AC50 is more than 30 µM.
Molecule `CC1(C)C(/C=C/C=C/C=C/C=C2\N(CCCCS(=O)(=O)O)c3ccc4ccccc4c3C2(C)C)=[N+](CCCCS(=O)(=O)[O-])c2ccc3ccccc3c21` [INDOCYANINE GREEN ACID FORM] gave an AC50 on Histamine H1 receptor of more than 30 µM.
In the case of `Nc1nc2c(c(=O)[nH]1)N(C=O)C(CNc1ccc(C(=O)N[C@@H](CCC(=O)O)C(=O)O)cc1)CN2` (some centres undefined) [LEUCOVORIN], the AC50 in test [1] is more than 30 µM.
On to `CCCC[C@H](C)C[C@H](O)/C=C/[C@H]1[C@H](O)CC(=O)[C@@H]1CCCC/C=C/C(=O)O` [LIMAPROST], for which the AC50 (in [1]; on Histamine H1 receptor) was more than 30 µM throughout.
`CC#CCn1c(N2CCC[C@@H](N)C2)nc2c1c(=O)n(Cc1nc(C)c3ccccc3n1)c(=O)n2C` [LINAGLIPTIN]: the AC50 is more than 30 µM at Androgen receptor; more than 10 µM in [2]; more than 10 µM in test [3]; more than 10 µM in test [6]; more than 150 µM in test [7].
As to `Cc1ccc(NC(=O)C2(c3ccc4c(c3)OC(F)(F)O4)CC2)nc1-c1cccc(C(=O)O)c1` [LUMACAFTOR], the AC50 is more than 30 µM in test [1], more than 50 µM in test [7] and more than 30 µM on Histamine H1 receptor.
Turning to `CCOC(=O)Nc1ccc2c(c1)N(C(=O)CCN1CCOCC1)c1ccccc1S2` [MORICIZINE], the AC50 (in [1]; at Histamine H1 receptor) was more than 30 µM in each case.
`CCn1cc(C(=O)O)c(=O)c2cc(F)c(N3CCN(C)CC3)cc21` [PEFLOXACIN] returned an AC50 in test [1] of more than 30 µM.
With `CC1(C)C(C=C(Cl)Cl)C1C(=O)OCc1cccc(Oc2ccccc2)c1` (centres undefined) [PERMETHRIN], the AC50 at Androgen receptor is more than 30 µM.
The molecule `CC(=O)c1ccc2c(c1)N(CCCN1CCC(CCO)CC1)c1ccccc1S2` [PIPERACETAZINE] gave an AC50 in test [2] of 0.012 µM.
With `Cc1ccc(=O)n(-c2ccccc2)c1` [PIRFENIDONE], the AC50 in test [1] was more than 30 µM; in test [2], more than 10 µM; in test [7], more than 50 µM; at Histamine H1 receptor it was more than 30 µM.
In turn, `CCCNC(C)C(=O)Nc1ccccc1C` (centres undefined) [PRILOCAINE] registered an AC50 in test [1] of more than 30 µM.
For `NC(=O)CCC/N=C(\c1ccc(Cl)cc1)c1cc(F)ccc1O` [PROGABIDE], the AC50 (on Androgen receptor; in [2]) was more than 10 µM throughout.
On Histamine H1 receptor, `Cc1ccc2c(-c3ccccc3)nc(=O)n(C(C)C)c2c1` [PROQUAZONE] had an AC50 of more than 30 µM.
Still for that read-out and setting: for `CN1CCN(c2c(F)cc3c(=O)c(C(=O)O)cn4c3c2SCC4)CC1` [RUFLOXACIN] the value was more than 30 µM.
For `CC(C)CC(N(C)C)C1(c2ccc(Cl)cc2)CCC1` (centres undefined) [SIBUTRAMINE], the AC50 was more than 10 µM in [3]; more than 30 µM in test [4]; more than 30 µM on Glucagon receptor; more than 30 µM in test [5]; more than 10 µM in [6].
On to `CN1c2ccccc2C(NCCCCCCC(=O)O)c2ccc(Cl)cc2S1(=O)=O` (centres undefined) [TIANEPTINE], for which the AC50 at Histamine H1 receptor was more than 30 µM.
Molecule `COc1cc2c(Nc3ccc(Br)cc3F)ncnc2cc1OCC1CCN(C)CC1` [VANDETANIB] displayed an AC50 in test [1] of more than 30 µM.
As for `COc1ccc(C(CN(C)C)C2(O)CCCCC2)cc1` (centres undefined) [VENLAFAXINE], in test [3], the AC50 is more than 10 µM.

Usually AC50 stands for the concentration giving half of the maximal activity seen.
